Experimental findings from patent publication US10758534B2 (Vertex Pharmaceuticals Incorporated, priority 2014, dated 2020) are described below.

In the assay the target is T1, F508del (Homo sapiens, UniProt P13569, DEL508-508).
T1 construct: expressed in transfected cells
T1 sequence (P13569 with tags, fused parts or gaps DEL508-508): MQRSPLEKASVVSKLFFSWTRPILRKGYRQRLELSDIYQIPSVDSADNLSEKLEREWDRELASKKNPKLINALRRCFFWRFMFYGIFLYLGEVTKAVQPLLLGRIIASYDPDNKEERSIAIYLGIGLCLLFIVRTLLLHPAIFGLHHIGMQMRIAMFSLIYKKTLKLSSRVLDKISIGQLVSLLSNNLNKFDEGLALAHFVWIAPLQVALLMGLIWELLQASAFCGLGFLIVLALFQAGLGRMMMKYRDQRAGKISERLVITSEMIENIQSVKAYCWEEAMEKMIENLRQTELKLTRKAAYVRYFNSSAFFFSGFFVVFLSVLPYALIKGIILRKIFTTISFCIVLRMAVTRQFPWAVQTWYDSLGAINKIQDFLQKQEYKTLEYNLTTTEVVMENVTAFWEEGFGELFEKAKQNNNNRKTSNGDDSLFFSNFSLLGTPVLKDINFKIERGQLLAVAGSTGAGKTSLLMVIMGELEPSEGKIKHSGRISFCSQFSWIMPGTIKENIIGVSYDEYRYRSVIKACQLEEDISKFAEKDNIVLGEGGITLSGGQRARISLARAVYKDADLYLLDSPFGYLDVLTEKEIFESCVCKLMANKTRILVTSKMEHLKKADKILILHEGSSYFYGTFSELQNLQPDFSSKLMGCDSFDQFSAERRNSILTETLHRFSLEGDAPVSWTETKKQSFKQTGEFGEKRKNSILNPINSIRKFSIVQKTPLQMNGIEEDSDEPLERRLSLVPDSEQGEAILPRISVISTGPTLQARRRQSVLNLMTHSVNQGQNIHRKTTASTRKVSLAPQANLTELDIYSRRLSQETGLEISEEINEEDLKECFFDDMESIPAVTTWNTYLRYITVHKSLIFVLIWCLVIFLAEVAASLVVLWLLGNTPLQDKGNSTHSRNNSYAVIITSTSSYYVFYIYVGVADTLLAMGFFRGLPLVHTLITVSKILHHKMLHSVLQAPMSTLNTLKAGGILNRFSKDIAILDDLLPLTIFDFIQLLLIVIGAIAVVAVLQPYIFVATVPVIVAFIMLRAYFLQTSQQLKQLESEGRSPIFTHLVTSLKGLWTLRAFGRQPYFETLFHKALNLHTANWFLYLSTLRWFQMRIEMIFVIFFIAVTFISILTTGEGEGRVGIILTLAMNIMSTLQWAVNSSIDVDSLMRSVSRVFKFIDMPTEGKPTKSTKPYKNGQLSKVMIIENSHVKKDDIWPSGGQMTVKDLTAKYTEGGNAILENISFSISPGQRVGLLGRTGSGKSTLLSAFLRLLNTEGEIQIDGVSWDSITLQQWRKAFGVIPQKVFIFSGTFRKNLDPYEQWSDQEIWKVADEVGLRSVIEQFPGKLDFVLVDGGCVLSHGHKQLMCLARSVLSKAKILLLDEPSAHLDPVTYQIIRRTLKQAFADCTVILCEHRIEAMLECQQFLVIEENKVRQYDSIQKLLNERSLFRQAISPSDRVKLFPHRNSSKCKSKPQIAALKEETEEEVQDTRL
Briefly: Protocol 1: membrane potential optical assay (FLIPR III, voltage sensing dye), identification of potentiator compounds. In kind it is cell-based. The settings on record: Table 3, compounds of Table 1. The text has this:
Membrane Potential Optical Methods for Assaying F508del Modulation Properties of Compounds
The assay utilizes fluorescent voltage sensing dyes to measure changes in membrane potential using a fluorescent plate reader (e.g., FLIPR III, Molecular Devices, Inc.) as a readout for increase in functional F508del in NIH 3T3 cells. The driving force for the response is the creation of a chloride ion gradient in conjunction with channel activation by a single liquid addition step after the cells have previously been treated with compounds and subsequently loaded with a voltage sensing dye.
Identification of Potentiator Compounds
To identify potentiators of F508del, a double-addition HTS assay format was developed. This HTS assay utilizes fluorescent voltage sensing dyes to measure changes in membrane potential on the FLIPR III as a measurement for increase in gating (conductance) of F508del in temperature-corrected F508del NIH 3T3 cells. The driving force for the response is a Cl^− ion gradient in conjunction with channel activation with forskolin in a single liquid addition step using a fluorescent plate reader such as FLIPR III after the cells have previously been treated with potentiator compounds (or DMSO vehicle control) and subsequently loaded with a redistribution dye.
Bath Solution #1: (in mM) NaCl 160, KCl 4.5, CaCl2 2, MgCl2 1, HEPES 10, pH 7.4 with NaOH.
Chloride-free bath solution: Chloride salts in Bath Solution #1 (above) are substituted with gluconate salts.
NIH3T3 mouse fibroblasts stably expressing F508del are used for optical measurements of membrane potential. The cells are maintained at 37° C. in 5% CO2 and 90% humidity in Dulbecco's modified Eagle's medium supplemented with 2 mM glutamine, 10% fetal bovine serum, 1×NEAA, β-ME, 1× pen/strep, and 25 mM HEPES in 175 cm^2 culture flasks. For all optical assays, the cells were seeded at ˜20,000/well in 384-well matrigel-coated plates and cultured for 2 hrs at 37° C. before culturing at 27° C. for 24 hrs. for the potentiator assay. For the correction assays, the cells are cultured at 27° C. or 37° C. with and without compounds for 16-24 hours.
In the case of `CC(C)COc1cc(F)cc(-c2ccc(C(=O)NS(=O)(=O)c3cccc(N)n3)c(OC(C)C3CCC3)n2)c1` (stereo not drawn) [Compound 1238, N-[(6-amino-2-pyridyl)sulfonyl]-2-(1-cyclobutylethoxy)-6-(3-fluoro-5-isobutoxy-phenyl)pyridine-3-carboxamide], the EC30 result is given as “+++ (“+++” means <3 uM)”.
For `CC(C)COc1cc(F)cc(-c2ccc(C(=O)NS(=O)(=O)c3ccccn3)c(N3CC(C)CC3(C)C)n2)c1` (stereo not drawn) [Compound 1063, 6-(3-fluoro-5-isobutoxy-phenyl)-N-(2-pyridylsulfonyl)-2-(2,2,4-trimethylpyrrolidin-1-yl)pyridine-3-carboxamide], the EC30 entry is “+++ (“+++” means <3 uM)”.
The same measure for `CC(C)Cc1ccc(C(=O)NS(=O)(=O)c2cccc(N)n2)c(N2C[C@@H](C)CC2(C)C)n1` [Compound 1599, N-[(6-amino-2-pyridyl)sulfonyl]-6-isobutyl-2-[(4S)-2,2,4-trimethylpyrrolidin-1-yl]pyridine-3-carboxamide]: “+++ (“+++” means <3 uM)”; for `CC(C)Cc1ccn(-c2ccc(C(=O)NS(=O)(=O)c3cccc(N)n3)c(N3C[C@@H](C)CC3(C)C)n2)n1` [Compound 1411, N-[(6-amino-2-pyridyl)sulfonyl]-6-(3-isobutylpyrazol-1-yl)-2-[(4S)-2,2,4-trimethylpyrrolidin-1-yl]pyridine-3-carboxamide]: “+++ (“+++” means <3 uM)”.
In the case of `COc1ccc(-c2ccc(C(=O)NS(=O)(=O)c3cccnc3N)c(N3C[C@@H](C)CC3(C)C)n2)c(F)c1` [Compound 1818, N-[(2-amino-3-pyridyl)sulfonyl]-6-(2-fluoro-4-methoxy-phenyl)-2-[(4S)-2,2,4-trimethylpyrrolidin-1-yl]pyridine-3-carboxamide], the EC30 entry is “+++ (“+++” means <3 uM)”.
As for `CC(C)COc1cc(F)cc(-c2ccc(C(=O)NS(=O)(=O)c3cccc(N)n3)c(N3CCCC4(CCC4)C3)n2)c1` [Compound 1264, N-[(6-amino-2-pyridyl)sulfonyl]-2-(8-azaspiro[3.5]nonan-8-yl)-6-(3-fluoro-5-isobutoxy-phenyl)pyridine-3-carboxamide], the EC30 entry is reported as “+++ (“+++” means <3 uM)”.
The same measure for `C[C@@H]1CN(c2nc(C3=CCC(C(F)(F)F)CC3)ccc2C(=O)NS(=O)(=O)c2cccc(N)n2)C(C)(C)C1` (stereo partly drawn) [Compound 1664, N-[(6-amino-2-pyridyl)sulfonyl]-6-[4-(trifluoromethyl)cyclohexen-1-yl]-2-[(4S)-2,2,4-trimethylpyrrolidin-1-yl]pyridine-3-carboxamide]: “+++ (“+++” means <3 uM)”; for `CC(C)COc1cc(F)cc(-c2ccc(C(=O)NS(=O)(=O)N3CCCC(NS(C)(=O)=O)C3)c(N3CC(C)CC3(C)C)n2)c1` (stereo not drawn) [Compound 1600, 6-(3-fluoro-5-isobutoxy-phenyl)-N—[[3-(methanesulfonamido)-1-piperidyl]sulfonyl]-2-(2,2,4-trimethylpyrrolidin-1-yl)pyridine-3-carboxamide]: “+++ (“+++” means <3 uM)”; for `CC(C)Cc1ccnn1-c1ccc(C(=O)NS(=O)(=O)c2cccc(N)n2)c(N2C[C@@H](C)CC2(C)C)n1` [Compound 1431, N-[(6-amino-2-pyridyl)sulfonyl]-6-(5-isobutylpyrazol-1-yl)-2-[(4S)-2,2,4-trimethylpyrrolidin-1-yl]pyridine-3-carboxamide]: “+++ (“+++” means <3 uM)”.
Next, `CC(C)COc1cc(F)cc(-c2ccc(C(=O)NS(=O)(=O)N3CCC(O)C3)c(N3C[C@@H](C)CC3(C)C)n2)c1` (stereo partly drawn) [Compound 1648, 6-(3-fluoro-5-isobutoxy-phenyl)-N-(3-hydroxypyrrolidin-1-yl)sulfonyl-2-[(4S)-2,2,4-trimethylpyrrolidin-1-yl]pyridine-3-carboxamide]: “+++ (“+++” means <3 uM)”; `CC1CN(c2ncccc2C(=O)NS(=O)(=O)c2cccc(N3CCN(C4CCCC4)CC3)n2)C(C)(C)C1` (stereo not drawn) [Compound 1733, N—[[6-(4-cyclopentylpiperazin-1-yl)-2-pyridyl]sulfonyl]-2-(2,2,4-trimethylpyrrolidin-1-yl)pyridine-3-carboxamide]: “++ (“++” means between 3 uM and 10 uM)”; `CC1CN(c2nc(C(C)(C)C)c(-c3cnn(C)c3)cc2C(=O)NS(=O)(=O)c2cccc(N)n2)C(C)(C)C1` (stereo not drawn) [Compound 1441, N-[(6-amino-2-pyridyl)sulfonyl]-6-tert-butyl-5-(1-methylpyrazol-4-yl)-2-(2,2,4-trimethylpyrrolidin-1-yl)pyridine-3-carboxamide]: “++ (“++” means between 3 uM and 10 uM)”.
Next, `CC(C)COc1cc(F)cc(-c2cnc(C(=O)NS(=O)(=O)c3cccc(N)n3)c(N3C[C@@H](C)CC3(C)C)n2)c1` [Compound 1526, NV [(6-amino-2-pyridyl)sulfonyl]-5-(3-fluoro-5-isobutoxy-phenyl)-3-[(4S)-2,2,4-trimethylpyrrolidin-1-yl]pyrazine-2-carboxamide]: “+++ (“+++” means <3 uM)”.
With `Cc1cc(C)c(Oc2nc(-c3ccnn3C)ccc2C(=O)NS(=O)(=O)c2cccc(N)n2)c(C)c1` [Compound 1057, N-[(6-amino-2-pyridyl)sulfonyl]-6-(2-methylpyrazol-3-yl)-2-(2,4,6-trimethylphenoxy)pyridine-3-carboxamide], the EC30 entry is “+ (“+” means greater than 10 uM)”.
Consider `CC(C)CC(C)Nc1ccc(-c2ccc(C(=O)NS(=O)(=O)c3cccc(N)n3)c(N3[C@H](C)CC[C@@H]3C)n2)cn1` (stereo in doubt) [Compound 1463, N-[(6-amino-2-pyridyl)sulfonyl]-6-[6-[[(1 S)-1,3-dimethylbutyl]amino]-3-pyridyl]-2-[(2S,5R)-2,5-dimethylpyrrolidin-1-yl]pyridine-3-carboxamide], for which the EC30 entry is on record as “+++ (“+++” means <3 uM)”.
Next, `COc1ccccc1S(=O)(=O)NC(=O)c1ccc(C(C)(C)C)nc1-c1ccc(C)cc1` [Compound 1124, 6-tert-butyl-N-(2-methoxyphenyl)sulfonyl-2-(p-tolyl)pyridine-3-carboxamide]: “+++ (“+++” means <3 uM)”; `Cc1ccccc1-c1cnc(N2CC(C)CC2(C)C)c(C(=O)NS(=O)(=O)c2cccc(N)n2)c1` (stereo not drawn) [Compound 1701, N-[(6-amino-2-pyridyl)sulfonyl]-5-(o-tolyl)-2-(2,2,4-trimethylpyrrolidin-1-yl)pyridine-3-carboxamide]: “+++ (“+++” means <3 uM)”.
Next, `CC(C)(C)c1ccc(C(=O)NS(=O)(=O)c2cccc(N)n2)c(Oc2ccc(F)cc2F)n1` [Compound 829, N-[(6-amino-2-pyridyl)sulfonyl]-6-tert-butyl-2-(2,4-difluorophenoxy)pyridine-3-carboxamide]: “+++ (“+++” means <3 uM)”; `CCc1ccc(-c2ccc(C(=O)NS(=O)(=O)c3cccc(N)n3)c(Oc3c(C)cc(C)cc3C)n2)cc1` [Compound 900, N-[(6-amino-2-pyridyl)sulfonyl]-6-(4-ethylphenyl)-2-(2,4,6-trimethylphenoxy)pyridine-3-carboxamide]: “+++ (“+++” means <3 uM)”.
Next, `CC(C)COc1cc(-c2ccc(C(=O)NS(=O)(=O)c3cccc(N)n3)c(N3C[C@@H](C)CC3(C)C)n2)ccn1` [Compound 1618, N-[(6-amino-2-pyridyl)sulfonyl]-6-(2-isobutoxy-4-pyridyl)-2-[(4S)-2,2,4-trimethylpyrrolidin-1-yl]pyridine-3-carboxamide]: “+++ (“+++” means <3 uM)”.
Consider `Cc1cc(C)c(Oc2nc(-c3ccnn3C(C)C)ccc2C(=O)NS(=O)(=O)c2cccc(N)n2)c(C)c1` [Compound 1317, N-[(6-amino-2-pyridyl)sulfonyl]-6-(2-isopropylpyrazol-3-yl)-2-(2,4,6-trimethylphenoxy)pyridine-3-carboxamide], for which the EC30 result is listed as “+++ (“+++” means <3 uM)”.
The same measure for `Cc1cc(C)c(Oc2nc(-c3ccc4cn(C)nc4c3)ccc2C(=O)NS(=O)(=O)c2cccc(N)n2)c(C)c1` [Compound 1299, N-[(6-amino-2-pyridyl)sulfonyl]-6-(2-methylindazol-6-yl)-2-(2,4,6-trimethylphenoxy)pyridine-3-carboxamide]: “++ (“++” means between 3 uM and 10 uM)”; for `Cc1ccc(Oc2nc(-c3cc(F)cc(OC(C)C)c3)ccc2C(=O)NS(=O)(=O)c2cc[nH]n2)c(C)c1` [Compound 1213, 2-(2,4-dimethylphenoxy)-6-(3-fluoro-5-isopropoxy-phenyl)-N-(1H-pyrazol-3-ylsulfonyl)pyridine-3-carboxamide]: “++ (“++” means between 3 uM and 10 uM)”.
Next, `Cc1cc(C)c(Oc2nc(C(C)(C)C)ccc2C(=O)N=S(N)(=O)c2cccc(N)n2)c(C)c1` (stereo not drawn) [Compound 1481, N-[amino-(6-amino-2-pyridyl)-oxo-$1^6-sulfanylidene]-6-tert-butyl-2-(2,4,6-trimethylphenoxy)pyridine-3-carboxamide]: “+++ (“+++” means <3 uM)”.
